US20240124450A1, “Novel SIK Inhibitors” (Pfizer Inc., priority 2022, published 2024)
Like-named read-outs stand apart in the source and are kept apart here.

Experiments:
SIK2 = SIK2 (Homo sapiens (Human), UniProt Q9H0K1); test: Pan SIK MS IC50 enzyme assay (SIK2); type: biochemical; details: 1 mM ATP, substrate peptide AQT0252, LCMS/MS detection
Experimental: (§1) Enzyme Assay: Pan SIK MS IC50 Assay
(§2) Salt Induced Kinase (SIK) activity is determined by measuring the effect of a test agent on the activity of the appropriate SIK enzyme to phosphorylate its corresponding substrate. […] The phosphorylated substrate product resulting from the kinase reaction is detected by LCMS/MS, and the area under the peak curve correlates with kinase activity. […] The plates are spun at 1000 rpm for 30 seconds to ensure compounds are at the bottom of the well before removing foil covers. 0.15 μL HPE (assay std) and ZPE (DMSO) are added to the ARP using an HP D300 dispenser. Plates are spun again at 1000 rpm for 30 seconds. […] Plates are spun at 1000 rpm for 30 seconds. Plates are then sealed and incubated at RT for 10 minutes. Following incubation, 5 μL of 5× peptide reagent is added with a Multidrop Combi and designated small volume cassette to initiate the kinase reaction. Plates are spun at 1000 rpm for 30 seconds. Plates are then sealed and incubated at RT for 90 minutes. The assay is stopped by the addition of 5 μl of 120 mM EDTA added with a Multidrop Combi and designated small volume cassette (20 mM final concentration). Plates are spun at 1000 rpm for 30 seconds. 10 μl of the final reaction mix from each of the three individual enzyme plates are transferred by a Platemate Plus to the same corresponding 96 well deepwell plate containing 70 μl Water/Methanol (85/15%) for multiplex MS detection ([…]). Using Activity Base (ABase), an idbs data analysis software tool, the reported area ratio unit data is associated to compound, batch and dose information, the data is evaluated for quality, and the percent inhibition of each well is calculated. The data from each Max effect/HPE and Min effect/ZPE control wells are assessed, and outliers are excluded from all further calculations. The mean and standard deviation of the HPE and ZPE are then calculated for each plate, along with the Z Prime. The compound data is converted into % effect, using the average ZPE and HPE controls as 0% and 100% activity, respectively.

[1] = system: IL10 release from human monocyte derived macrophages stimulated with LPS; test: SIK macrophage cytokine assay, increase of IL10 release; type: cell-based; details: 1 ng/mL LPS, 4 hours, HTRF
Experimental: (§3) Cytokine Assays: SIK Macrophage Assay Cytokine activity is determined by measuring the effect of a test agent on the inhibitory release of the cytokine TNFα and the increasing release of the cytokine IL10 from human monocyte derived macrophages (human macrophages) stimulated with lipopolysaccharide (LPS). At the time of assay, human macrophages (CGPS group Pfizer Groton, CT) are removed from cryopreservation, thawed quickly at 37° C., diluted in thaw medium (OptiMEM—Gibco medium, 10% heat inactivated fetal bovine serum (HIFBS)), and then centrifuged at 200×g for 10 minutes. […] After ˜60 minutes in an incubator at 37° C. in a humidified environment in 5% carbon dioxide the cells are stimulated by the addition of 5 μL of LPS (10 ng/mL; Sigma) and the assay plate is returned to an incubator at 37° C. in a humidified environment in 5% carbon dioxide for 4 hours. […] The final concentration of DMSO in the assay is approximately 0.1%. After 4 hours, the assay plate is removed from the incubator and centrifuged at 1500 rpm for 10 minutes. A portion of the resulting cell supernatant is then used to determine the amount of IL-10 and TNFα in each well. Cytokine measurements are made using human IL-10 and TNFα HTRF assay kits (Perkin Elmer) following the manufacturer's assay protocol.

SIK3 = SIK3 (Homo sapiens (Human), UniProt Q9Y2K2); test: Pan SIK MS IC50 enzyme assay (SIK3); type: biochemical; details: 1 mM ATP, substrate peptide AQT0508, LCMS/MS detection
Experimental: as §1, §2

SIK1 = SIK1 (Homo sapiens (Human), UniProt P57059); test: Pan SIK MS IC50 enzyme assay (SIK1); type: biochemical; details: 1 mM ATP, substrate peptide AQT0868, LCMS/MS detection
Experimental: as §1, §2

[2] = system: TNFα release from human monocyte derived macrophages stimulated with LPS; test: SIK macrophage cytokine assay, inhibition of TNFα release; type: cell-based; details: 1 ng/mL LPS, 4 hours, HTRF, read-out: TNFa IC50
Experimental: as §3

SIK3, sequence (Q9Y2K2 whole entry, species assumed): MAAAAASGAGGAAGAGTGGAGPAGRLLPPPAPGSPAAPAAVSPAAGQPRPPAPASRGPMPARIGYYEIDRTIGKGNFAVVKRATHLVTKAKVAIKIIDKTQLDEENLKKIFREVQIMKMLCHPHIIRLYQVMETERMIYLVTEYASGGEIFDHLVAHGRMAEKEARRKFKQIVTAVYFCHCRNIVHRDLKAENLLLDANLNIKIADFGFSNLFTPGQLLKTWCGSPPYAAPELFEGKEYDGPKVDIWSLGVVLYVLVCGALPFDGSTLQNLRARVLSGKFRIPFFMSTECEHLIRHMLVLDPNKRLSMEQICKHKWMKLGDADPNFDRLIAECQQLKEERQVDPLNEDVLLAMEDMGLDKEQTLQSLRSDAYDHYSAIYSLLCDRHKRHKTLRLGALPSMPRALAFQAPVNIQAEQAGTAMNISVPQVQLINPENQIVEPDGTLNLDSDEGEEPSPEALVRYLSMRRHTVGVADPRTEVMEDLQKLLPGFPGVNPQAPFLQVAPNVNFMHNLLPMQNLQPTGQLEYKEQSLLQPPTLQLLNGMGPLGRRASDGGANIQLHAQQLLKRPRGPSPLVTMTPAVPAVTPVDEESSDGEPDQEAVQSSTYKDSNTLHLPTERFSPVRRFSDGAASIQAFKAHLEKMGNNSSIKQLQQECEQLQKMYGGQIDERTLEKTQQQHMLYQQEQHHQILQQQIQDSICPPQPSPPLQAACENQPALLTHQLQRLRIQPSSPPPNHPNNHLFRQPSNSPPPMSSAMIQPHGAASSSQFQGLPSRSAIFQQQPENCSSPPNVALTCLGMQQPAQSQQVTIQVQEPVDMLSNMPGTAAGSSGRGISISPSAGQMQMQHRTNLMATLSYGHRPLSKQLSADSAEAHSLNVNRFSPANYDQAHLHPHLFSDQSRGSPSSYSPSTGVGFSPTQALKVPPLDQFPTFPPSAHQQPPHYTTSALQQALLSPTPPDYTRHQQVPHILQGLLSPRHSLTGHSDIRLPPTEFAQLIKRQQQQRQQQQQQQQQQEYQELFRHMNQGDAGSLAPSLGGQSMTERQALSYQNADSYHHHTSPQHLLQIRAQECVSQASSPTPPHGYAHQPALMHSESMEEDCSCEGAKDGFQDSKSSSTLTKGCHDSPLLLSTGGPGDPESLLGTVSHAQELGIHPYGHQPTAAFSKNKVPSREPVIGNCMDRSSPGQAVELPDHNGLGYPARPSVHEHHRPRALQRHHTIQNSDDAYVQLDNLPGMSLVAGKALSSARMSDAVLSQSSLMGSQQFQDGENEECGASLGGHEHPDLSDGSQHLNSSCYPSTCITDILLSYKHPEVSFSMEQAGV
SIK1, sequence (P57059 whole entry, species assumed): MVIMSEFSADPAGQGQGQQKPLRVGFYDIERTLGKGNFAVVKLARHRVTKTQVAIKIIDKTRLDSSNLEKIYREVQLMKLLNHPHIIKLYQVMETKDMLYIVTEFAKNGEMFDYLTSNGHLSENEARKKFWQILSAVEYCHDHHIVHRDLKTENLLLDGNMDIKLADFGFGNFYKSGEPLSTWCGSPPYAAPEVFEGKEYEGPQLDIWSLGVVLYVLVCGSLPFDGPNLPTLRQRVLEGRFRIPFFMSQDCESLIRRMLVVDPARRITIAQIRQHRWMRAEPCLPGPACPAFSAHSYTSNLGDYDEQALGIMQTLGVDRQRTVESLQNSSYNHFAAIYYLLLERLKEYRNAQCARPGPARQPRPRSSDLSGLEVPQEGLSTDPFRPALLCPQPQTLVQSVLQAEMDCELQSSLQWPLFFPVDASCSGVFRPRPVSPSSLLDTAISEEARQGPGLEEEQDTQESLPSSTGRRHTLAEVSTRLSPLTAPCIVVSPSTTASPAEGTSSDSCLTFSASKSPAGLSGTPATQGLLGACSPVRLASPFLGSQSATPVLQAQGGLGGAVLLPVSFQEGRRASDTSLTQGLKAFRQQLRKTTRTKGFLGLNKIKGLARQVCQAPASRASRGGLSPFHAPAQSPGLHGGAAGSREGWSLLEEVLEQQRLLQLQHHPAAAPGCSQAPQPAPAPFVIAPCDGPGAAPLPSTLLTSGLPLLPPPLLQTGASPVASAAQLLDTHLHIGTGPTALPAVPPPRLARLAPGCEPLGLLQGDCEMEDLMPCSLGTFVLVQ
SIK2, sequence (Q9H0K1 whole entry, species assumed): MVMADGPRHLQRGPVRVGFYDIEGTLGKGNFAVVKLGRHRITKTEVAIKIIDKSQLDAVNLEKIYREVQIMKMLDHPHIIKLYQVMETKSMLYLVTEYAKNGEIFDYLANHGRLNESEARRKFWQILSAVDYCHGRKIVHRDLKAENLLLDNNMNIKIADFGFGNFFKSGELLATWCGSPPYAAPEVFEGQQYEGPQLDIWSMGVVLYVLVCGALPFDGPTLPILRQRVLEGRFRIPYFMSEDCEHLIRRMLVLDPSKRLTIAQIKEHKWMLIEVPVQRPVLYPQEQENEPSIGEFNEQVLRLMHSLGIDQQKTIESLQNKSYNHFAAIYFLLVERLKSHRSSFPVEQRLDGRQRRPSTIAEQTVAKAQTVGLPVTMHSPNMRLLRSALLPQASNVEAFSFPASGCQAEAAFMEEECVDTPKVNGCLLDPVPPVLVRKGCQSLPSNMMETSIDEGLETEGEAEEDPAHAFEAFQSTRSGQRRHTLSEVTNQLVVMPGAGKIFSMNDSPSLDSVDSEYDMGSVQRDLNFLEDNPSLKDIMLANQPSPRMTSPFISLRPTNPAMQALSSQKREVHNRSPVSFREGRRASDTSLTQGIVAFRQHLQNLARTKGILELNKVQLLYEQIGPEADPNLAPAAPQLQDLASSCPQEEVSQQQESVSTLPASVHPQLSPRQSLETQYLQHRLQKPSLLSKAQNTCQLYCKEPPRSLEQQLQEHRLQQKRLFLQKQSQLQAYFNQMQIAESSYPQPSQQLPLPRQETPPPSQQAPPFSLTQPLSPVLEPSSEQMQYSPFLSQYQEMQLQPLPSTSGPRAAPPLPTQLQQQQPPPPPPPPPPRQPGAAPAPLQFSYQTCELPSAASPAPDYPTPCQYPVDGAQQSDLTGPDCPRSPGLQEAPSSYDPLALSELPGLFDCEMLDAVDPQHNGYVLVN

SMILES	IC50 (SIK2)	EC50 ([1]; Macrophage)	IC50 (SIK3)	IC50 (SIK1)	IC50 ([2]; Macrophage)	EC50 [1]	IC50 [2]
CSc1cc(-c2cnc3ccc(N4CCCC4)c(C#N)n23)cc(OCC2(N)CCCC2)c1C#N [Example 47, 3-(3-((1-Aminocyclopentyl)methoxy)-4-cyano-5-(methylthio)phenyl)-6-(pyrrolidin-1-yl)imidazo[1,2-a]pyridine-5-carbonitrile]	0.4 nM	6 nM	0.9 nM	0.2 nM	1.4 nM		
COc1cc(-c2cnc3ccc(N(C)C)c(C#N)n23)cc(OCC2(N)CCCC2)c1C#N [Example 48, 3-(3-((1-Aminocyclopentyl)methoxy)-4-cyano-5-methoxyphenyl)-6-(dimethylamino)imidazo[1,2-a]pyridine-5-carbonitrile]	0.7 nM	4 nM	1.7 nM	0.4 nM	0.8 nM		
CC[C@@H]1CCC[C@@]1(N)COc1cc(-c2cnc3cccc(C#N)n23)cc(SC)c1C#N (racemic) [Example 7, 3-(3-(((1S,2R)-1-Amino-2-ethylcyclopentyl)methoxy)-4-cyano-5-(methylthio)phenyl)imidazo[1,2-a]pyridine-5-carbonitrile and 3-(3-(((1R,2S)-1-amino-2-ethylcyclopentyl)methoxy)-4-cyano-5-(methylthio)phenyl)imidazo[1,2-a]pyridine-5-carbonitrile]	0.8 nM	5 nM	1.8 nM	0.5 nM	1.5 nM		
CCc1ccc2ncc(-c3cc(OCC4(N)CCCC4)c(C#N)c(SC)c3)n2c1C#N [Example 44, 3-(3-((1-Aminocyclopentyl)methoxy)-4-cyano-5-(methylthio)phenyl)-6-ethylimidazo[1,2-a]pyridine-5-carbonitrile]	1.7 nM	38 nM	2.1 nM	2.3 nM	21 nM		
COCC1CCC[C@@](N)(COc2cc(-c3cnc4ccccn34)cc(SC)c2C#N)C1 (mixture of isomers) [Example 31, 2-(((1S)-1-Amino-3-(methoxymethyl)cyclohexyl)methoxy)-4-(imidazo[1,2-a]pyridin-3-yl)-6-(methylthio)benzonitrile and 2-(((1R)-1-amino-3-(methoxymethyl)-cyclohexyl)methoxy)-4-(imidazo[1,2-a]pyridin-3-yl)-6-(methylthio)benzonitrile]	1.6 nM		4.8 nM	0.7 nM		36 nM	13.8 nM
COc1ccc2ncc(-c3cc(OCC4(N)CCCC4)c(C#N)c(SC)c3)n2c1C#N [Example 39, 3-(3-((1-Aminocyclopentyl)methoxy)-4-cyano-5-(methylthio)phenyl)-6-methoxyimidazo[1,2-a]pyridine-5-carbonitrile]	1 nM	25 nM	1.1 nM	0.5 nM	6 nM		
COc1cc(-c2cnc3cccc(OC)n23)cc(OCC2(N)CCCN(CC(F)(F)F)C2)c1C#N (centres unmarked) [Example 21A]	1.1 nM		4.4 nM	1 nM		50 nM	19.6 nM
CC[C@H]1CCC[C@]1(N)COc1cc(-c2cnc3cccc(OC)n23)cc(OC)c1C#N [Example 2B, 2-(((1R,2S)-1-Amino-2-ethylcyclopentyl)methoxy)-6-methoxy-4-(5-methoxyimidazo[1,2-a]pyridin-3-yl)benzonitrile]	11.1 nM	570 nM	71.3 nM	12 nM	271 nM		
CSc1cc(-c2cnc3ccccn23)cc(OC[C@@]2(N)CCC[C@@H](C(F)(F)F)C2)c1C#N (racemic) [Example 33A, 2-(((1S,3S)-1-Amino-3-(trifluoromethyl)cyclohexyl)methoxy)-4-(imidazo[1,2-a]pyridin-3-yl)-6-(methylthio)benzonitrile and 2-(((1R,3R)-1-amino-3-(trifluoromethyl)cyclohexyl)methoxy)-4-(imidazo[1,2-a]pyridin-3-yl)-6-(methylthio)benzonitrile]	1 nM	34 nM	2.2 nM	0.6 nM	13.9 nM		
CSc1cc(-c2cnc3ccccn23)cc(OC[C@]2(N)CCSC2)c1C#N (mixture of isomers) [Example 22, (R)-2-((3-Aminotetrahydrothiophen-3-yl)methoxy)-4-(imidazo[1,2-a]pyridin-3-yl)-6-(methylthio)benzonitrile and (S)-2-((3-Aminotetrahydrothiophen-3-yl)methoxy)-4-(imidazo[1,2-a]pyridin-3-yl)-6-(methylthio)benzonitrile]	1.3 nM	357 nM	5.9 nM	1.6 nM	32.4 nM		
CCC1CCC(N)(COc2cc(-c3cnc4cccc(OC)n34)cc(OC)c2C#N)C1 (centres unmarked) [Example 3, 2-((1-Amino-3-ethylcyclopentyl)methoxy)-6-methoxy-4-(5-methoxyimidazo[1,2-a]pyridin-3-yl)benzonitrile]	2.1 nM	92 nM	4.7 nM	0.8 nM	29.7 nM		
CSc1cc(-c2cnc3ccccn23)cc(OC[C@@]2(N)CCC(F)(F)C2)c1C#N (mixture of isomers) [Example 25, (R)-2-((1-Amino-3,3-difluorocyclopentyl)methoxy)-4-(imidazo[1,2-a]pyridin-3-yl)-6-(methylthio)benzonitrile and (S)-2-((1-amino-3,3-difluorocyclopentyl)methoxy)-4-(imidazo[1,2-a]pyridin-3-yl)-6-(methylthio)benzonitrile]	0.9 nM	177 nM	5.3 nM	2.3 nM	15.6 nM		
CSc1cc(-c2cnc3ccc(N)c(C#N)n23)cc(OCC2(N)CCCC2)c1C#N [Example 45, 6-Amino-3-(3-((1-aminocyclopentyl)methoxy)-4-cyano-5-(methylthio)phenyl)imidazo[1,2-a]pyridine-5-carbonitrile]	0.2 nM	3 nM	0.4 nM	0.1 nM	0.6 nM		
CNc1ccc2ncc(-c3cc(OCC4(N)CCCC4)c(C#N)c(SC)c3)n2c1C#N [Example 53, 3-(3-((1-Aminocyclopentyl)methoxy)-4-cyano-5-(methylthio)phenyl)-6-(methylamino)imidazo[1,2-a]pyridine-5-carbonitrile]	0.4 nM	4 nM	1.5 nM	0.1 nM	0.5 nM		
COc1cccc2ncc(-c3cc(OCC4(N)CCCCC4)c(C#N)c(SC)c3)n12 [Example 29, 2-((1-Aminocyclohexyl)methoxy)-4-(5-methoxyimidazo[1,2-a]pyridin-3-yl)-6 (methylthio)benzonitrile]	2.9 nM	75 nM	11.4 nM	2.4 nM	29.1 nM		
COc1cc(C#N)n2c(-c3cc(OCC4(N)CCCC4)c(C#N)c(SC)c3)cnc2c1 [Example 50, 3-(3-((1-Aminocyclopentyl)methoxy)-4-cyano-5-(methylthio)phenyl)-7-methoxyimidazo[1,2-a]pyridine-5-carbonitrile]	0.5 nM	29 nM	0.8 nM	1.2 nM	4.2 nM		
